Numbers after ± are expanded uncertainties.
Details: Crystal; visual observation

**Q.** For `Nc1cccc(C(=O)O)c1` [3-aminobenzoic acid], which Normal melting temperature is on record?
**A.** 174.1 ± 1 °C
